According to paper PMC10279755 (Nature Communications, 2023):
Where two headings read alike, the source gives them in different places. Ends that are not written are not given here.

Assays:
[1] = tested on: HUVECs; parameters: method as in earlier work; conditions: curcumin up to 100 µM, up to 72 h; ref Kumar et al. 1998; Do et al. 2022; Ouyang et al. 2019; Hosseini et al. 2019; Yuan et al. 2022; cited from earlier work
Source text: page 17: Reviewer #3 Specific Comment 1. I have one very major concern that should be experimentally addressed.

[2] = tested on: aminopeptidase N (APN); test: In vitro aminopeptidase N (APN) activity assay with Ala-MCA in HUVECs; type: cell-based, human; conditions: 100 μM Ala-MCA in PBS, curcumin 50 µM, 24 h, fluorescence λex 360 nm, λem 460 nm
Method: HUVEC cells were plated in a 96-well plate at a density of 5000 cells per well in 200 μL complete ECGM V2 media per well. After culturing for 24 h, cells were washed with 1X PBS two times. […] The release of fluorescent product 7-amino-4-methylcoumarin in the media was monitored on the plate reader (BioTek Cytation3 imaging reader) with λex of 360 nm and peak λem of 460 nm.

[3] = tested on: HUVECs (cell surface laminin receptor integrin); test: In vitro study of biological function using fluorescent probe: rhodamine B-labeled peptide attachment to HUVECs (CTCF); type: cell-based, human
Method: HUVECs were plated at a density of 0.1 million cells per well in a 24-well plate with 0.5 mL complete ECGM per well and cultured for 24 h, followed by washing with 1× PBS three times and the addition of 950 μL serum-free ECGM per well. Rhodamine B labeled peptide solution (50 μL in serum-free ECGM, 1 mM) was mixed with 0.05% trypsin (5 μL). The mixed solution was then added to each well for a total volume of 1005 μL. Cells were incubated with the mixed solution for various time periods. At different time points (1 h up to 30 h), the media was removed, and cells were washed with PBS three times. Fresh PBS (500 μL) was added to the wells, and the plate was visualized by bright-field and fluorescence microscopy (Nikon Eclipse Ti−U) with TRITC filter set. The magnification was 20×. Corrected total cell fluorescence (CTCF) intensity was estimated using the equation CTCF = integrated density − (area of selected cell) × (mean fluorescence of background). A rectangular drawing/selection tool in ImageJ was used to select a desired region with fluorescence, and its integrated density and area were measured. […] Cell counts were 30 for each group from three separate wells.
The corrected total cell fluorescence (CTCF) was calculated as follows:1 2 CTCF = integrated density – (area of selected cell × mean fluorescence of background readings)
Supplementary Table 1. Statistics Data of CTCF at each timepoint measured from fluorescence images of Ac-E5G2KSYIGR-KRB with trypsin, and control peptides mentioned […]
Comparison Mean q P value […]
Group comparisons are indicated as determined by a one -way analysis of variance (ANOVA) with a Student−Newman−Keuls comparisons post hoc test. *** indicates p < 0.001, ** indicates p < 0.01, * indicates p < 0.05, and ns indicates no significance among indicated

[4] = tested on: trypsin; test: trypsin (0.08 wt% total) in PBS buffer; conditions: 37 °C
[5] = target: T1, trypsin (Sus scrofa, UniProt P00761); test: Trypsin cleavage of switch peptide followed by MALDI-TOF MS; type: biochemical
T1 construct: purchased VWR (Radnor, PA, USA)
Method: We followed the kinetics of Lys residue cleavage by trypsin and functional peptide formation using MALDI-TOF mass spectrometry (MS). We tracked disappearance of the switch peptide peak and evolution of the intermediate or functional peptide peak (SYIGR or Ac-YIGSR; both have the same exact mass) after treatment with trypsin. […] After 3 h, the intensity of both signals was similar, and after 24 h the switch peptide signal disappeared completely, while the intermediate/functional peptide peak became dominant, indicating near-complete conversion.
Addition of the KRB unit created a new potential cleavage site for trypsin at the C-terminal side of the Arg residue (i.e., the R–KRB peptide bond). To ensure the desired response still occurred, i.e., cleavage of the K–SYIG peptide bond to remove the N-terminal Lys residue, we designed an experiment to follow the transformation of KSYIGRK as a representative peptide that contains two potential cleavage points, the desired K–SYIG peptide bond and the undesired R–K peptide bond. We treated this peptide with trypsin and followed bond cleavage at these two sites using MALDI-TOF MS. […] However, we envisioned that this undesired cleavage would not be a problem in cell studies because it would simply generate a KRB species that would be removed in washing steps.
Switch peptide solution (100 μL, 5 mg/mL in PBS) was mixed with 20 μL of a trypsin solution (0.25%) in a vial and placed at 37 °C in an incubator. Aliquots (2 μL) from each reaction solution were withdrawn at specific times, and trypsin was deactivated immediately by the addition of acetic acid (0.3 μL, 1 M in distilled water). Samples (0.8 μL) were then mixed with a matrix solution (0.8 μL, 0.02 M α-cyano-4-hydroxycinnamic acid dissolved in acetonitrile/methanol/water (1:1:1) with 0.1% formic acid) and deposited on a MALDI plate (Opti-TOF 384 Well, 123 × 81 mm). Samples were analyzed using a matrix-assisted laser desorption ionization−tandem time-of-flight mass spectrometer (4800 MALDI TOF/TOF, AB Sciex).

[6] = tested on: HUVECs; test: Cell viability assay (CCK-8); type: cell-based, human
Method: HUVECs (ATCC catalog number PCS-100-010) were plated in a 96-well plate at a density of 5000 cells per well in 200 μL complete ECGM per well. After culturing for 24 h, the media was discarded and the cells were washed with 1X PBS three times before […] serum-containing ECGM media was added. Next, varying amounts of peptide stock solution (4 mM in PBS) were diluted to […] with PBS and added to the wells to make the final peptide concentrations ranging from 10 to 200 µM. After incubation for 24 h, cells were washed three times with PBS and then treated with serum-free ECGM media (100 μL). Next, 10 μL cell counting kit 8 solution (CCK-8, Dojindo, Rockville, MD) was added to each well. After incubation for another 3 h to allow for development of the CCK8 dye, absorbance was recorded at 450 and 750 nm using a BioTek Synergy Mx plate reader (BioTek, Winooski, VT). Worked-up data (absorbance at 750 nm subtracted from absorbance at 450 nm) were graphed using GraphPad InStat, version 3 (GraphPad Software, Inc., San Diego, CA). Mean values are reported together with the standard deviation (SD) representing the combination of 3 independent experimental runs with five replicates per experiment.

[7] = tested on: CD29 (integrin β1); test: Immunofluorescence co-localization with CD29; type: cell-based, human; conditions: HUVECs, 50 µM peptide, 24 h, fixed, confocal microscopy, done once
Method: HUVEC cells were seeded in an 8-chamber glass slide (Lab-Tek Chamber Slide) at a density of 30,000 cells per well in 0.4 mL complete ECGM media per well. After culturing for 24 h, cells were washed twice with 1× PBS. The cells were then incubated with 395 μL of serum-free ECGM media […] in the following groups: Blank (5 μL PBS), and 4 mM Ac-YIGSR-KRB (5 μL in PBS, final concentration 50 µM). After incubation for 24 h, the media was removed, and cells were washed with PBS three times. Cultured cells were then fixed in 10% formalin for 5 min, then washed three times with PBS for 5 min each. Slides were blocked for 1 h with 2% cold water fish skin gelatin (Sigma, Inc., St. Louis, MO, USA) and 0.2% triton-X100 solution. Slides were then incubated in conjugated primary antibody diluted in blocking solution overnight at room temperature, then washed with PBS five times for 10 min each. The antibody used was FITC Armenian hamster anti-mouse/rat CD29 at a 1:50 dilution (Biolegend, San Diego, CA, USA; Catalog number 102205, clone HMbeta1-1), validated by the manufacturer by immunofluorescent staining with flow cytometric analysis. Finally, slides were mounted with DAPI Fluoromount-G (SouthernBiotech, Birmingham, AL, USA). Images were then obtained using a Nikon A1 Confocal Microscope with NIS Elements Imaging Software (Melville, New York, USA).

[8] = tested on: trypsin; test: trypsin solution (0.25%) mixed with switch peptide solution in PBS; conditions: 37 °C, up to 24 h
[9] = switch peptide 5 mg/mL in PBS (100 μL) + 20 μL 0.25% trypsin, 37 °C

T1 sequence (P00761 9-231): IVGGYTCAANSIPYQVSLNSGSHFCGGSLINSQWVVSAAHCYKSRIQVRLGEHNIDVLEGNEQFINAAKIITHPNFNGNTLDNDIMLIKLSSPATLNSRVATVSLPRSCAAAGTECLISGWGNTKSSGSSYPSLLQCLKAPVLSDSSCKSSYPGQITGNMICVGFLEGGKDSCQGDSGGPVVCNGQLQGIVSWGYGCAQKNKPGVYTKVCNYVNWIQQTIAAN

In the case of `COc1cc(/C=C/C(=O)CC(=O)/C=C/c2ccc(O)c(OC)c2)ccc1O` [curcumin], the “viability of HUVECs” value [1] is listed as greater than 80% and the “APN activity remaining with inhibitor” value [2] is listed as ~ 25%.

With “Ac-E5G2KSYIGRKRB (lariat or depsi) [Ac-E5G2KSYIGR-KRB, switch peptide labeled with the fluorescent probe rhodamine B]” the “fluorescence signal on HUVECs after washing (in words)” value (shortened to “fluorescence signal on HUVECs”) ([3]; with trypsin, 1 h) was “negligible fluorescent signal”, the “fluorescence signal on HUVECs” value ([3]; with trypsin, 30 h) was “strong signal” and the “fluorescence signal on HUVECs” value ([3]; without trypsin, 30 h) was “no fluorescence signal”.

For Ac-KSYIGRK, the cleaved bond [4] was “K-S and R-K”.

For “Ac-KSYIGRK (also: lariat or depsi (positions not given here))”, the “trypsin cleavage at K–SYIG versus R–K peptide bond” value ([5]; trypsin, cleavage at either site but not both simultaneously) was “approximately the same rate”.

For “Ac-KYIGR-KRB [fluorescence labeled peptide with YIG on the side chain, cannot undergo a switch; negative control]”, the “fluorescence signal on HUVECs” value ([3]; with trypsin, 30 h) was “no fluorescence” and the “fluorescence signal on HUVECs” value ([3]; without trypsin, 30 h) was “no fluorescence”.

With “Ac-YIGSR [functional cell-adhesive pentapeptide derived from the ECM protein laminin, reference compound]” the “cytotoxicity in cell viability studies” value ([6]; HUVECs, CCK-8, peptide up to 200 µM, 24 h) was “no cytotoxicity”.

For “Ac-YIGSR-KRB [rhodamine B-labeled functional peptide, positive control]”, the “fluorescence signal on HUVECs” value ([3]; without trypsin, 30 h) was “strong fluorescence” and the “co-localization of rhodamine B-labeled peptide with anti-CD29-FITC stain” value [7] was “colocalized with integrin β1”.

With “KSYIGR (also: lariat or depsi (positions not given here)) [non-functional depsipeptide; SYIG = Ser residue esterified with Ac-YIG; trypsin removes N-terminal Lys]” the “time after which switch peptide signal (m/z = 764) started to decrease” value [5, 9] was 1 h, the “time at which intensity of switch peptide and intermediate/functional peptide signals was similar” value [5, 9] was 3 h and the “time at which switch peptide signal disappeared completely (near-complete conversion)” value [5, 9] was 24 h.

For “KSYIGR, where the SYIG unit indicates a Ser residue esterified with the Ac-YIG peptide sequence (Ac = acetyl)”, the cleaved bond [8] was “Lys-Ser, 1 h”.

B1: trypsin: enzyme that cleaves peptide bonds on the C-terminal side of positively charged residues (protein, UniProt P00760 24-246, looked up)
Serine protease 1: IVGGYTCGANTVPYQVSLNSGYHFCGGSLINSQWVVSAAHCYKSGIQVRLGEDNINVVEGNEQFISASKSIVHPSYNSNTLNNDIMLIKLKSAASLNSRVASISLPTSCASAGTQCLISGWGNTKSSGTSYPDVLKCLKAPILSDSSCKSAYPGQITSNMFCAGYLEGGKDSCQGDSGGPVVCSGKLQGIVSWGSGCAQKNKPGVYTKVCNYVSWIKQTIASN
In the case of B1, the “cytotoxicity in cell viability studies” value [6] is reported as “no cytotoxicity”.
